This is an account of results in US20110027192A1, “SLIM-FIT FAT BURNING WATER” (priority 2008, published 2011).

Data set [1] has as its system long chain fatty acid oxidation. The settings on record: oral supplementation, slightly overweight adults; cited from earlier work.
Data set [2] concerns adults. The settings on record: 1200 mg for a 60 kg person, 1993 GRAS expert committee; cited from earlier work.
The nature of data set [3]: Solubility of L-carnitine in water (100-2000 mg per 16 oz). Type of data set: physicochemical. The settings on record: about 100 mg to about 2000 mg per 16 fluid ounces of water.
Procedure: A pre-measured amount of L-carnitine was added into water at a final concentration range from about 100 mg to about 2000 mg per 16 fluid ounces (oz) of water.
Data set [4] relates to long chain fatty acid oxidation. The settings on record: oral supplementation, healthy subjects; cited from earlier work.
Data set [5] relates to cells (mitochondria). The settings on record: cited from earlier work.

Take `C[N+](C)(C)C[C@H](O)CC(=O)[O-].O=C(O)C(O)C(O)C(=O)O` [L-Carnitine L-Tartrate]: the “long chain fatty acid oxidation” value in data set [1] was “increased long chain fatty acid oxidation”. The “amount that can be safely ingested by adults” value in data set [2] is 20 mg/kg/day.

`C[N+](C)(C)C[C@H](O)CC(=O)[O-].O=C([O-])CC(O)(CC(=O)[O-])C(=O)[O-].O=C([O-])CC(O)(CC(=O)[O-])C(=O)[O-].[Mg+2].[Mg+2].[Mg+2]` [L-Carnitine Magnesium Citrate]: in data set [2], the “amount that can be safely ingested by adults” value is recorded as 20 mg/kg/day.

`C[N+](C)(C)C[C@H](O)CC(=O)[O-]` [L-carnitine]: in data set [3], the “solubility in the water” value is listed as “completely soluble”. Also, in data set [4], the “long chain fatty acid oxidation as measured by 13CO2 exhalation” value is “improved long chain fatty acid oxidation”. In addition, the “rate at which cells (mitochondria) burned fat” value in data set [5] is recorded as “increased the rate”. For the same molecule, in data set [2], the “amount that can be safely ingested by adults” value is listed as 20 mg/kg/day.
